Reference: ChEMBL document CHEMBL3885861, “Open TG-GATES”

Species on record: Rattus norvegicus
Assay: Open TG-GATES - Regimen: Daily Repeat
Format: toxicity, organism-based, Sprague-Dawley
Design: regimen Daily Repeat, gender Male, age 6 weeks
Settings: in vivo, po, 0 mg/kg, route gavage, dose level Control; for APTT / Bas / Eos / Fbg / Hb / Ht / Lym / MCH / MCHC / MCV / Mono / Neu / PT / Plat / RBC / Ret / WBC: tissue Blood; for KIDNEY_L / KIDNEY_R / KIDNEY_TOTAL: tissue Kidney; for LIVER: tissue Liver; for A/G / ALP / ALT / AST / BUN / CRE / Ca / Cl / DBIL / GLC / IP / K / LDH / Na / PL / RALB / TBIL / TC / TG / TP / gamma-GTP: tissue Plasma

## CCOC(=O)[C@H](CCc1ccccc1)N[C@@H](C)C(=O)N1CCC[C@H]1C(=O)O
72 h, time 3 day
  TERMINAL_BW: 253.2 g
  APTT: 16 s
  Bas: 0%
  Eos: 1%
  Fbg: 242 mg/dL
  Hb: 13.2 g/dL
  Ht: 40.1%
  Lym: 73.6%
  MCH: 21 pg
  MCHC: 32.9%
  MCV: 63.9 fL
  Mono: 7.8%
  Neu: 17.4%
  PT: 11.8 s
  Plat: 123.1 x10_4/uL
  RBC: 627.6 x10_4/ul
  Ret: 6.6%
  WBC: 111.6 x10_2/uL
  KIDNEY_L: 1.1 g
  KIDNEY_R: 1.1 g
  KIDNEY_TOTAL: 2.2 g
  LIVER: 12.4 g
  A/G: 1.8
  ALP: 993.8 IU/L
  ALT: 38.6 IU/L
  AST: 63.4 IU/L
  BUN: 19 mg/dL
  CRE: 0.5 mg/dL
  Ca: 11 mg/dL
  Cl: 105 meq/L
  DBIL: 0.022 mg/dL
  GLC: 209.8 mg/dL
  IP: 9 mg/dL
  K: 4.7 meq/L
  LDH: 82.2 IU/L
  Na: 141.4 meq/L
  PL: 149.6 mg/dL
  RALB: 3.8 g/dL
  TBIL: 0.4 mg/dL
  TC: 81 mg/dL
  TG: 114.6 mg/dL
  TP: 5.9 g/dL
  gamma-GTP: 1.2 IU/L
[…], time 7 day
  TERMINAL_BW: 279.2 g
  APTT: 16.4 s
  Bas: 0%
  Eos: 1.2%
  Fbg: 227.8 mg/dL
  Hb: 13.9 g/dL
  Ht: 41.9%
  Lym: 78.8%
  MCH: 21.4 pg
  MCHC: 33.3%
  MCV: 64.6 fL
  Mono: 6%
  Neu: 14%
  PT: 11.6 s
  Plat: 121.8 x10_4/uL
  RBC: 649.6 x10_4/ul
  Ret: 6.5%
  WBC: 122 x10_2/uL
  KIDNEY_L: 1.2 g
  KIDNEY_R: 1.2 g
  KIDNEY_TOTAL: 2.4 g
  LIVER: 14 g
  A/G: 2.1
  ALP: 778.4 IU/L
  ALT: 37.8 IU/L
  AST: 62 IU/L
  BUN: 18.2 mg/dL
  CRE: 0.5 mg/dL
  Ca: 10.7 mg/dL
  Cl: 106 meq/L
  DBIL: 0.002 mg/dL
  GLC: 207 mg/dL
  IP: 8.6 mg/dL
  K: 5 meq/L
  LDH: 89.2 IU/L
  Na: 140.2 meq/L
  PL: 157.4 mg/dL
  RALB: 4 g/dL
  TBIL: 0.4 mg/dL
  TC: 78.2 mg/dL
  TG: 130.2 mg/dL
  TP: 5.9 g/dL
  gamma-GTP: 1.6 IU/L
[…], time 14 day
  TERMINAL_BW: 338.3 g
  APTT: 16.5 s
  Bas: 0%
  Eos: 1%
  Fbg: 232.8 mg/dL
  Hb: 13.9 g/dL
  Ht: 41.7%
  Lym: 79.2%
  MCH: 20.6 pg
  MCHC: 33.3%
  MCV: 61.8 fL
  Mono: 5.8%
  Neu: 13.4%
  PT: 11.4 s
  Plat: 115 x10_4/uL
  RBC: 675.8 x10_4/ul
  Ret: 4.1%
  WBC: 143.8 x10_2/uL
  KIDNEY_L: 1.3 g
  KIDNEY_R: 1.3 g
  KIDNEY_TOTAL: 2.6 g
  LIVER: 15.8 g
  A/G: 1.6
  ALP: 684 IU/L
  ALT: 31 IU/L
  AST: 58.2 IU/L
  BUN: 19.6 mg/dL
  CRE: 0.6 mg/dL
  Ca: 10.9 mg/dL
  Cl: 106.4 meq/L
  DBIL: 0 mg/dL
  GLC: 209.6 mg/dL
  IP: 8 mg/dL
  K: 4.4 meq/L
  LDH: 105.2 IU/L
  Na: 140 meq/L
  PL: 162.2 mg/dL
  RALB: 3.9 g/dL
  TBIL: 0.3 mg/dL
  TC: 77 mg/dL
  TG: 172 mg/dL
  TP: 6.2 g/dL
  gamma-GTP: 1.4 IU/L
[…], time 28 day
  TERMINAL_BW: 401.8 g
  APTT: 17.7 s
  Bas: 0%
  Eos: 1.2%
  Fbg: 249 mg/dL
  Hb: 15.3 g/dL
  Ht: 46.4%
  Lym: 80%
  MCH: 19.3 pg
  MCHC: 33%
  MCV: 58.3 fL
  Mono: 6%
  Neu: 12.6%
  PT: 11.6 s
  Plat: 107.8 x10_4/uL
  RBC: 797.4 x10_4/ul
  Ret: 3.1%
  WBC: 125.5 x10_2/uL
  KIDNEY_L: 1.4 g
  KIDNEY_R: 1.4 g
  KIDNEY_TOTAL: 2.8 g
  LIVER: 16.1 g
  A/G: 1.9
  ALP: 643.2 IU/L
  ALT: 29.2 IU/L
  AST: 54.2 IU/L
  BUN: 19.2 mg/dL
  CRE: 0.7 mg/dL
  Ca: 10.7 mg/dL
  Cl: 107.2 meq/L
  DBIL: 0.036 mg/dL
  GLC: 202.6 mg/dL
  IP: 7 mg/dL
  K: 4.5 meq/L
  LDH: 61 IU/L
  Na: 140.2 meq/L
  PL: 145 mg/dL
  RALB: 4 g/dL
  TBIL: 0.3 mg/dL
  TC: 66.4 mg/dL
  TG: 128.2 mg/dL
  TP: 6.2 g/dL
  gamma-GTP: 1.4 IU/L
